# Where two headings read alike, the source gives them in different places.
# Assays:
# PC12 mHTT^Q103 cells = assay: Rescue of PC12 cells from mHTT^Q103 induced cell death (Alamar blue viability); assay type: cell-based; details: Rattus norvegicus
# [1] = Mouse microsome stability assay; assay type: in vitro ADME; details: for half-life at 0.5 μM: mouse, liver microsomes, pH 7.4, mouse liver microsomes
# Experimental: At 0, 5, 15, 30 and 45 minute intervals, an aliquot was taken and quenched with acetonitrile (ACN) containing internal standard. No-cofactor controls at 45 minutes were prepared. Following completion of the experimentation, the samples were analyzed by LC-MS/MS. […] C=initial×exp (−k×t). Intrinsic clearance (CLint) was calculated as liver clearance from the half-life using the following equation: CLint=k×(ml incubation/0.5 mg protein)×(52.5 mg protein/g liver). Results were reported as peak area ratios of analyte to internal standard. The intrinsic clearance (CLint) was determined from the first order elimination constant by non-linear regression. The microsome stability assay, plasma stability assay, and plasma protein binding assay were each performed by Alliance Pharma, Inc. (Malvern, Pa.).
# [2] = Mouse plasma stability assay; assay type: in vitro ADME; details: compound 1.0 μM
# Experimental: Test compound (1 μM) was incubated at 37° C. for up to 120 minutes in mouse plasma. At 0, 15, 30, 60, and 120 minute intervals an 100 μL aliquot was taken and quenched with 200 μL acetonitrile (ACN) containing internal standard. Following completion of the experimentation, the samples were analyzed by LC-MS/MS. The half-life (t1/2) was calculated using the following equation: t1/2=0.693/k, where, k is the elimination rate constant of test compounds obtained by fitting the data to the equation: C=initial×exp (−k×t). Results were reported as peak area ratios of analyte to internal standard.
# The microsome stability assay, plasma stability assay, and plasma protein binding assay were each performed by Alliance Pharma, Inc. (Malvern, Pa.).
# [3] = mouse liver microsomes, compound 0.5 μM
smiles,measurement,setting,value
"O=C(C1CC1)N1CCN(Cn2sc3ccccc3c2=O)CC1 [LOC14, 2-((4-(cyclopropanecarbonyl)piperazin-1-yl)methyl)benzo[d]isothiazol-3(2H)-one]",EC50,"PC12 mHTT^Q103 cells; PC-12, 48 h, read-out: EC50, rescue of PC12 mHTT^Q103 cells",500 nM
same,EC50,"PC12 mHTT^Q103 cells; PC-12, read-out: Cell Viability Assay EC50",102 nM
same,intrinsic clearance value,[1]; mouse liver microsomes,less than 0.5 ml/min/g
same,Elimination rate constant (k),[1]; [3],0.0016
same,"Intrinsic Clearance (CLint), mL/min/g liver",[1]; [3],0.17 mL/min/g liver
same,half-life at 0.5 μM,"[1]; compound 0.5 μM, read-out: Half-life (t1/2)",7.31 h
same,half-life at 0.5 μM,[1]; read-out: half-life,> 1.5 h
same,% Remaining after 2-hour incubation,[2],49.9%
same,Elimination rate constant (k),[2],0.0049
same,half-life at 1 μM,[2]; read-out: Half-life (t1/2) (converted),2.4 h
